Measurements reported in patent US7511145B2 (Genelabs Technologies, Inc., priority 2003, dated 2009).

Molecular target: T1, HCV-NS5b (Hepatitis C virus genotype 1b, UniProt Q9WMX2)
T1 construct: (His)6 (C); made in house; host or cells: XL-1 cells (E. coli), IPTG-inducible plasmid, nickel-NTA purification
Assay: HCV-NS5b enzyme assay (incorporation of radiolabeled UTP)
Type: biochemical
Settings: for inhibition at 33 µM: enzyme inhibition at compound concentration of 33 uM; for inhibition at 100 µM: read-out: % inh@100, enzyme inhibition at compound concentration of 100 uM
In short: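 Percent inhibition, background-corrected against uninhibited control, was measured at 100 and 33 uM compound. Incorporation of [3H]-UTP (10 μM each NTP) into biotinylated HCV-template RNA, 37° C for 2 h, pH 7.5, scintillation proximity. Enzyme: C-terminally truncated (21 aa), His6-tagged NS5b from XL-1.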

| Structure (SMILES) | inhibition at 33 µM | inhibition at 100 µM |
| --- | --- | --- |
| Cc1onc(-c2ccc(Cl)cc2)c1-c1ccc2cc(-c3nc4cc(C(=O)O)ccc4n3C3CCCCC3)ccc2n1 [Compound 396, 2-{2-[3-(4-chloro-phenyl)-5-methyl-isoxazol-4-yl]-quinolin-6-yl}-1-cyclohexyl-1H-benzoimidazole-5-carboxylic acid] | 100% | 100% |
| Cc1cc(-c2nc3cc(C(=O)O)ccc3n2C2CCCCC2)cc2ccc(-c3ccccc3)nc12 [Compound 397, 1-Cyclohexyl-2-(8-methyl-2-phenyl-quinolin-6-yl)-1H-benzoimidazole-5-carboxylic acid] | 95.6% | 99.3% |
| O=C(O)c1ccc2c(c1)nc(-c1ccc3nc(-c4ccccc4)cc(NCCCCO)c3c1)n2C1CCCCC1 [Compound 398, 1-cyclohexyl-2-[4-(4-hydroxy-butylamino)-2-phenyl-quinolin-6-yl]-1H-benzoimidazole-5-carboxylic acid] | 59.6% | 92% |
| CC(C)(C)OC(=O)NCCNc1cc(-c2ccccc2)nc2ccc(-c3nc4cc(C(=O)O)ccc4n3C3CCCCC3)cc12 [Compound 399, 2-[4-(2-tert-butoxycarbonylamino-ethylamino)-2-phenyl-quinolin-6-yl]-1-cyclohexyl-1H-benzoimidazole-5-carboxylic acid] | 95.6% | 102% |
| COc1ccc(-c2ccc(N(C)C)cc2)c(-c2ccc3cc(-c4nc5cc(C(=O)O)ccc5n4C4CCCCC4)ccc3n2)c1 [Compound 401, 1-cyclohexyl-2-[2-(4′-dimethylamino-4-methoxy-biphen-2-yl)-quinolin-6-yl]-1H-benzoimidazole-5-carboxylic acid] | 100% | 101% |
| COc1ccc(-c2ccc(Cl)c(Cl)c2)c(-c2ccc3cc(-c4nc5cc(C(=O)O)ccc5n4C4CCCCC4)ccc3n2)c1 [Compound 403, 1-cyclohexyl-2-[2-(3′,4′-dichloro-4-methoxy-biphen-2-yl)-quinolin-6-yl]-1H-benzoimidazole-5-carboxylic acid] | 99.4% | 99.9% |
| CCOc1ccc([N+](=O)[O-])cc1-c1ccc2cc(-c3nc4cc(C(=O)O)ccc4n3C3CCCCC3)ccc2n1 [Compound 404, 1-cyclohexyl-2-[2-(2-ethoxy-5-nitro-phenyl)-quinolin-6-yl]-1H-benzoimidazole-5-carboxylic acid] | 102% | 101% |
| O=C(O)c1ccc2c(c1)nc(-c1ccc3ccc(-c4ccccc4)nc3c1)n2C1CCCCC1 [Compound 405, 1-Cyclohexyl-2-(2-phenyl-quinolin-7-yl)-1H-benzoimidazole-5-carboxylic acid] | 90.5% | 98.9% |
| O=C(O)c1ccc2c(c1)nc(-c1ccc3nc(-c4ccccc4)c(-c4ccccc4)nc3c1)n2C1CCCCC1 [Compound 406, 1-Cyclohexyl-2-(2,3-diphenylquinoxalin-6-yl)-1H-benzimidazole-5-carboxylic acid] | 97.3% | 98.1% |
| O=C(O)c1ccc2c(c1)nc(-c1cc3ccc(-c4ccccc4-c4ccc(Cl)cc4)nc3cc1F)n2C1CCCCC1 [Compound 408, 2-[2-(4′-Chloro-biphen-2-yl)-7-fluoro-quinolin-6-yl]-1-cyclohexyl-1H-benzoimidazole-5-carboxylic acid] | 99.3% | 98.9% |
| O=C(O)c1ccc2c(c1)nc(-c1ccc3nc(-c4ccc(F)cc4)c(-c4ccc(F)cc4)nc3c1)n2C1CCCCC1 [Compound 409, 2-[2,3-Bis-(4-fluorophenyl)quinoxalin-6-yl]-1-cyclohexyl-1H-benzimidazole-5-carboxylic acid] | 97.9% | 99.9% |
| O=C(c1ccc2c(c1)nc(-c1cc3ccc(-c4ccccc4-c4ccccc4)nc3cc1F)n2C1CCCCC1)N1CCC(O)CC1 [Compound 410] | 84.3% | 88.6% |
| O=C(O)c1ccc2c(c1)nc(-c1ccc3nc(-c4cc5cccc(O)c5o4)ccc3c1)n2C1CCCCC1 [Compound 411, 1-cyclohexyl-2-[2-(7-hydroxy-benzofuran-2-yl)-quinolin-6-yl]-1H-benzoimidazole-5-carboxylic acid] | 78.1% | 91.5% |
| O=C(O)c1ccc2c(c1)nc(-c1ccc3nc(-c4ccc5c(c4)OCO5)ccc3c1)n2C1CCCCC1 [Compound 412, 2-(2-benzo[1,3]dioxol-5-yl-quinolin-6-yl)-1-cyclohexyl-1H-benzoimidazole-5-carboxylic acid] | 98.4% | 100% |
| O=C(O)c1ccc2c(c1)nc(-c1ccc3nc(-c4cc5ccccc5o4)ccc3c1)n2C1CCCCC1 [Compound 413, 2-(2-benzofuran-2-yl-quinolin-6-yl)-1-cyclohexyl-1H-benzoimidazole-5-carboxylic acid] | 95.5% | 100% |
| O=C(O)c1ccc2c(c1)nc(-c1ccc3nc(-c4cccc(OCCCN5CCCC5)c4)ccc3c1)n2C1CCCCC1 [Compound 414, 1-Cyclohexyl-2-{2-[3-(3-pyrrolidin-1-yl-propoxy)-phenyl]-quinolin-6-yl}-1H-benzoimidazole-5-carboxylic acid] | 93.4% | 96.8% |
| O=C(O)c1ccc(-c2ccc(Cl)cc2)c(-c2ccc3cc(-c4nc5cc(C(=O)O)ccc5n4C4CCCCC4)ccc3n2)c1 [Compound 415, 2-[2-(4-Carboxy-4′-chloro-biphen-2-yl)-quinolin-6-yl]-1-cyclohexyl-1H-benzoimidazole-5-carboxylic acid] | 101% | 102% |
| Cc1nc(-c2ccc(Cl)cc2)sc1-c1ccc2cc(-c3nc4cc(C(=O)O)ccc4n3C3CCCCC3)ccc2n1 [Compound 416, 2-{2-[2-(4-chloro-phenyl)-4-methyl-thiazol-5-yl]-quinolin-6-yl}-1-cyclohexyl-1H-benzoimidazole-5-carboxylic acid] | 101% | 103% |
| Cc1cc(-c2nc3cc(C(=O)O)ccc3n2C2CCCCC2)cc2ccc(-c3ccccc3-c3ccc(Cl)cc3)nc12 [Compound 417, 2-[2-(4′-Chloro-biphen-2-yl)-8-methyl-quinolin-6-yl]-1-cyclohexyl-1H-benzoimidazole-5-carboxylic acid] | 97.8% | 98% |
| Cc1cc(-c2ccc3cc(-c4nc5cc(C(=O)O)ccc5n4C4CCCCC4)ccc3n2)c(O)c([N+](=O)[O-])c1 [Compound 418, 1-cyclohexyl-2-[2-(2-hydroxy-5-methyl-3-nitro-phenyl)-quinolin-6-yl]-1H-benzoimidazole-5-carboxylic acid] | 104% | 103% |
| COc1ccc(-c2ccc(C(=O)N3CCCC3)cc2-c2ccc3cc(-c4nc5cc(C(=O)O)ccc5n4C4CCCCC4)ccc3n2)cc1OC [Compound 419, 1-Cyclohexyl-2-{2-[3′,4′-dimethoxy-4-(pyrrolidine-1-carbonyl)biphen-2-yl]quinolin-6-yl}-1H-benzimidazole-5-carboxylic acid] | 101% | 101% |
| COc1ccc(-c2cccc([N+](=O)[O-])c2)c(-c2ccc3cc(-c4nc5cc(C(=O)O)ccc5n4C4CCCCC4)ccc3n2)c1 [Compound 420, 1-cyclohexyl-2-[2-(4-methoxy-3′-nitro-biphen-2-yl)-quinolin-6-yl]-1H-benzoimidazole-5-carboxylic acid] | 98.3% | 98.3% |
| COc1ccc(-c2ccc(C(=O)O)cc2)c(-c2ccc3cc(-c4nc5cc(C(=O)O)ccc5n4C4CCCCC4)ccc3n2)c1 [Compound 421, 2-[2-(4′-carboxy-4-methoxy-biphen-2-yl)-quinolin-6-yl]-1-cyclohexyl-1H-benzoimidazole-5-carboxylic acid] | 100% | 100% |
| COc1ccc(-c2cccc(Cl)c2)c(-c2ccc3cc(-c4nc5cc(C(=O)O)ccc5n4C4CCCCC4)ccc3n2)c1 [Compound 422, 2-[2-(3′-chloro-4-methoxy-biphen-2-yl)-quinolin-6-yl]-1-cyclohexyl-1H-benzoimidazole-5-carboxylic acid] | 98.8% | 99.2% |
| O=C(O)c1ccc2c(c1)nc(-c1ccc3nc(-c4ccnc5ccccc45)ccc3c1)n2C1CCCCC1 [Compound 423, 2-[2,4′]biquinolinyl-6-yl-1-cyclohexyl-1H-benzoimidazole-5-carboxylic acid] | 102% | 102% |
| O=C(O)c1ccc2c(c1)nc(-c1ccc3nc(-c4ccccc4Br)c(-c4ccccc4)cc3c1)n2C1CCCCC1 [Compound 424, 2-[2-(2-Bromo-phenyl)-3-phenyl-quinolin-6-yl]-1-cyclohexyl-1H-benzoimidazole-5-carboxylic acid] | 98.7% | 99.1% |
| COc1cccc(-c2nc3ccc(-c4nc5cc(C(=O)O)ccc5n4C4CCCCC4)cc3nc2-c2cccc(OC)c2)c1 [Compound 425, 2-[2,3-Bis-(3-methoxyphenyl)quinoxalin-6-yl]-1-cyclohexyl-1H-benzimidazole-5-carboxylic acid] | 96.2% | 98.2% |
| Cc1nc(C)c(-c2ccc3cc(-c4nc5cc(C(=O)O)ccc5n4C4CCCCC4)ccc3n2)s1 [Compound 426, 1-cyclohexyl-2-[2-(2,4-dimethyl-thiazol-5-yl)-quinolin-6-yl]-1H-benzoimidazole-5-carboxylic acid] | 96.6% | 102% |
| O=C(O)c1ccc2c(c1)nc(-c1ccc3nc(-c4ccccn4)ccc3c1)n2C1CCCCC1 [Compound 427, 1-cyclohexyl-2-(2-pyridin-2-yl-quinolin-6-yl)-1H-benzoimidazole-5-carboxylic acid] | 93.8% | 98.4% |
